Molecular target: T1, BaF3 TELJAK3 cells (Homo sapiens, UniProt P52333)
T1 construct: fused on or other part: TEL (ETV6) N-terminal part, coding nucleotides 1-487, serves as the oligomerising partner; It is fused through a Sal I site to the JAK3 kinase domain and expressed from pTRE2 in BaF3 cells bearing pTET-off; P41212 (Transcription factor ETV6)
T1 sequence (P52333 1-1124): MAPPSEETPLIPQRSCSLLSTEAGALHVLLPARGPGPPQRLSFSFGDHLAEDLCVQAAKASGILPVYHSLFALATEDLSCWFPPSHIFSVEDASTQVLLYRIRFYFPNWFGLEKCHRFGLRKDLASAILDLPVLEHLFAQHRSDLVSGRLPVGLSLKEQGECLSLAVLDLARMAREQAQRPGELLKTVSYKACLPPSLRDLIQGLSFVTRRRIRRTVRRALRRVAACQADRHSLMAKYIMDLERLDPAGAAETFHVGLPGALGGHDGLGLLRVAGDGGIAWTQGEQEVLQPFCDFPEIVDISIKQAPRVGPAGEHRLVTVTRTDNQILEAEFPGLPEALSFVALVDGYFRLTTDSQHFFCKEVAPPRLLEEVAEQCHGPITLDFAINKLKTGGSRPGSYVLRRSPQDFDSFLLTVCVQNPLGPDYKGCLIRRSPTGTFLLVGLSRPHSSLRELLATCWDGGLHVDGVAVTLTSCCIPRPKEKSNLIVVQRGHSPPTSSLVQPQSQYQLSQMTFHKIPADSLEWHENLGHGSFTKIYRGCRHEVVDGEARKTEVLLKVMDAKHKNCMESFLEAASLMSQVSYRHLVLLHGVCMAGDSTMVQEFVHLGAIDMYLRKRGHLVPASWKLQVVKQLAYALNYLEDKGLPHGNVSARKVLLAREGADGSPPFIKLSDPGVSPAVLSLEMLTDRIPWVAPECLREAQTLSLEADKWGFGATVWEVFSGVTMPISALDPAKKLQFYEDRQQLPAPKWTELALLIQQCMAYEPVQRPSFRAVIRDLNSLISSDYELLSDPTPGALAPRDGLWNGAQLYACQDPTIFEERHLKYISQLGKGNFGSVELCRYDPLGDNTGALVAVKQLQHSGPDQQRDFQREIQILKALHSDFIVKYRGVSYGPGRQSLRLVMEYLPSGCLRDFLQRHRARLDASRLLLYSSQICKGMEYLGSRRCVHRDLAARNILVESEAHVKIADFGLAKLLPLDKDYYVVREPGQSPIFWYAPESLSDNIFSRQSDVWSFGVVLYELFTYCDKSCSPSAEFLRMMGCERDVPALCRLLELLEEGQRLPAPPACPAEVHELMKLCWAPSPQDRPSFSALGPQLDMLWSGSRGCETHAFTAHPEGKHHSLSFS
Assay: Cellular screening, BaF3 TEL:JAK3 cells, Alamar Blue
Type: cell-based
Conditions: 40 hr, read-out: BafT_J3 IC50_nM
How it was run: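 Alamar Blue signal at 544 nm, developed for 4–6 h, measured viability after 40 h of compound treatment at 37 °C, 5% CO2. Cells were growth-factor-independent BaF3 lines transfected with a TEL/JAK3 kinase-domain fusion under tet-off control. They were cultured in DMEM, 10% Tet-approved FBS, lacking WEHI 3B conditioned medium.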

`C=CC(=O)Nc1ccc(Sc2nc(Nc3ccc(O)cc3)ncc2C)cc1` [Compound 282, N-(4-(2-(4-hydroxyphenylao)-5-methylpyrimidin-4-ylthio)phenyl)acrylamide] and `C=CC(=O)Nc1ccc(Sc2nc(Nc3ccccc3O)ncc2C)cc1` [Compound 287, N-(4-(2-(2-hydroxyphenylao)-5-methylpyrimidin-4-ylthio)phenyl)acrylamide] cannot be ordered by GI50: < 1 µM for the first, < 20 µM for the second.

`C=CC(=O)Nc1ccc(Sc2nc(Nc3ccc(OC)c(O)c3)ncc2C)cc1` [Compound 283, N-(4-(2-(3-hydroxy-4-methoxyphenylao)-5-methylpyrimidin-4-ylthio)phenyl)acrylamide] and `C=CC(=O)Nc1ccc(Sc2nc(Nc3ccc4c(c3)OCO4)ncc2C)cc1` [Compound 284, N-(4-(2-(benzo[d][1,3]dioxol-5-ylao)-5-methylpyrimidin-4-ylthio)phenyl)acrylamide] cannot be ordered by GI50: < 1 µM for the first, < 1 µM for the second.

`C=CC(=O)Nc1ccc(Sc2nc(Nc3cccc(OC(F)(F)F)c3)ncc2C)cc1` [Compound 289, N-(4-(5-methyl-2-(3-(trifluoromethoxy)phenylao)pyrimidin-4-ylthio)phenyl)acrylamide] and `C=CC(=O)Nc1ccc(Sc2nc(Nc3cccc(OCCCO)c3)ncc2C)cc1` [Compound 301, N-(4-(2-(3-(3-hydroxypropoxy)phenylao)-5-methylpyrimidin-4-ylthio)phenyl)acrylamide] cannot be ordered by GI50: < 5 µM for the first, < 1 µM for the second.

`C=CC(=O)Nc1ccc(Sc2nc(Nc3ccc(N4CCC(C(=O)OCC)CC4)cc3)ncc2C)cc1` [Compound 292, ethyl 1-(4-(4-(4-acrylamidophenylthio)-5-methylpyrimidin-2-ylao)phenyl)piperidine-4-carboxylate] and `C=CC(=O)Nc1ccc(Sc2nc(Nc3ccc(N4CCS(=O)(=O)CC4)cc3)ncc2C)cc1` [Compound 298, N-{4-[(2-{[4-(1,1-dioxo-1λ^6,4-thiomorpholin-4-yl)phenyl]ao}-5-methylpyrimidin-4-yl)sulfanyl]phenyl}prop-2-enamide] cannot be ordered by GI50: < 5 µM for the first, < 1 µM for the second.

`C=CC(=O)Nc1ccc(Sc2nc(Nc3ccc(CNS(C)(=O)=O)cc3)ncc2C)cc1` [Compound 294, N-(4-(5-methyl-2-(4-(methylsulfonamidomethyl)phenylao)pyrimidin-4-ylthio)phenyl)acrylamide] and `C=CC(=O)Nc1ccc(Sc2ccnc(Nc3ccc(S(N)(=O)=O)cc3)n2)cc1` [Compound 352, N-(4-(2-(4-sulfamoylphenylao)pyrimidin-4-ylthio)phenyl)acrylamide] cannot be ordered by GI50: < 1 µM for the first, < 20 µM for the second.

`C=CC(=O)Nc1ccc(Sc2nc(Nc3ccc(N4CCOCC4)cc3)ncc2-c2ccccc2)cc1` [Compound 307, N-(4-(2-(4-morpholinophenylao)-5-phenylpyrimidin-4-ylthio)phenyl)acrylamide] and `C=CC(=O)Nc1ccc(Sc2nc(Nc3ccc(N4CCOCC4)cc3)ncc2I)cc1` [Compound 313, N-(4-(5-iodo-2-(4-morpholinophenylao)pyrimidin-4-ylthio)phenyl)acrylamide] cannot be ordered by GI50: < 20 µM for the first, < 1 µM for the second.

Going from `Nc1ccc(Sc2nc(Nc3ccc(N4CCOCC4)cc3)ncc2I)cc1` [Compound 309, 4-(4-aophenylthio)-5-iodo-N-(4-morpholinophenyl)pyrimidin-2-ae] to `Nc1ccc(Sc2nc(Nc3ccc(N4CCOCC4)cc3)ncc2Cl)cc1` [Compound 318, 4-(4-aophenylthio)-5-chloro-N-(4-morpholinophenyl)pyrimidin-2-ae], the GI50 rises from < 5 µM to > 20 µM.

`C=CC(=O)Nc1ccc(Sc2nc(Nc3ccc(N4CCOCC4)cc3)ncc2Cl)cc1` [Compound 315, N-(4-(5-chloro-2-(4-morpholinophenylao)pyrimidin-4-ylthio)phenyl)acrylmide] and `CCC(=O)Nc1ccc(Sc2nc(Nc3ccc(N4CCOCC4)cc3)ncc2Cl)cc1` [Compound 347, N-(4-(5-chloro-2-(4-morpholinophenylao)pyrimidin-4-ylthio)phenyl)propionamide] cannot be ordered by GI50: < 1 µM for the first, < 1 µM for the second.

`C=C(CN1CCOCC1)C(=O)Nc1cccc(Sc2ccnc(Nc3ccc(N4CCOCC4)cc3)n2)c1` [Compound 328, 2-(morpholinomethyl)-N-(3-(2-(4-morpholinophenylao)pyrimidin-4-ylthio)phenyl)acrylamide] and `O=C(CCl)Nc1cccc(Sc2ccnc(Nc3ccc(N4CCOCC4)cc3)n2)c1` [Compound 332, 2-chloro-N-(3-(2-(4-morpholinophenylao)pyrimidin-4-ylthio)phenyl)acetamide] cannot be ordered by GI50: < 5 µM for the first, < 1 µM for the second.

`O=C(/C=C/Cl)Nc1ccc(Sc2ccnc(Nc3ccc(N4CCOCC4)cc3)n2)cc1` [Compound 342, (E)-3-chloro-N-(4-(2-(4-morpholinophenylao)pyrimidin-4-ylthio)phenyl)acrylamide] and `Cc1cnc(Nc2ccc(N3CCOCC3)cc2)nc1Sc1ccc(NC(=O)/C=C/Cl)cc1` [Compound 343, (E)-3-chloro-N-(4-(5-methyl-2-(4-morpholinophenylao)pyrimidin-4-ylthio)phenyl)acrylamide] cannot be ordered by GI50: < 5 µM for the first, < 5 µM for the second.

`C=CC(=O)Nc1ccc(Sc2ccnc(Nc3cccc(Cl)c3)n2)cc1` [Compound 348, N-(4-(2-(3-chlorophenylao)pyrimidin-4-ylthio)phenyl)acrylamide] and `C=CC(=O)Nc1ccc(Sc2ccnc(Nc3ccc(Cl)cc3)n2)cc1` [Compound 353, N-(4-(2-(4-chlorophenylao)pyrimidin-4-ylthio)phenyl)acrylamide] cannot be ordered by GI50: < 5 µM for the first, < 5 µM for the second.

`C=CC(=O)Nc1ccc(Sc2ccnc(Nc3ccccc3)n2)cc1` [Compound 350, N-(4-(2-(phenylao)pyrimidin-4-ylthio)phenyl)acrylamide] and `C=CC(=O)Nc1ccc(Sc2ccnc(Nc3cccc([N+](=O)[O-])c3)n2)cc1` [Compound 361, N-(4-(2-(3-nitrophenylao)pyrimidin-4-ylthio)phenyl)acrylamide] cannot be ordered by GI50: < 20 µM for the first, < 5 µM for the second.

`C=CC(=O)Nc1ccc(Sc2ccnc(Nc3ccc(F)c(C#N)c3)n2)cc1` [Compound 354, N-(4-(2-(3-cyano-4-fluorophenylao)pyrimidin-4-ylthio)phenyl)acrylamide] and `C=CC(=O)Nc1ccc(Sc2ccnc(Nc3cccc(C(=O)OC)c3)n2)cc1` [Compound 356, methyl 3-(4-(4-acrylamidophenylthio)pyrimidin-2-ylao)benzoate] cannot be ordered by GI50: < 20 µM for the first, < 5 µM for the second.

`C=CC(=O)Nc1ccc(Sc2ccnc(Nc3cccc(N4CCCC4)c3)n2)cc1` [Compound 355, N-(4-(2-(3-(pyrrolidin-1-yl)phenylao)pyrimidin-4-ylthio)phenyl)acrylamide] and `C=CC(=O)Nc1ccc(Sc2ccnc(Nc3cccc(S(N)(=O)=O)c3)n2)cc1` [Compound 364, N-(4-(2-(3-sulfamoylphenylao)pyrimidin-4-ylthio)phenyl)acrylamide] cannot be ordered by GI50: < 5 µM for the first, < 1 µM for the second.

`C=CC(=O)Nc1ccc(Sc2ccnc(Nc3ccc(C(=O)OC)cc3)n2)cc1` [Compound 357, methyl 4-(4-(4-acrylamidophenylthio)pyrimidin-2-ylao)benzoate] and `C=CC(=O)Nc1ccc(Sc2ccnc(Nc3cccc(S(=O)(=O)NCc4ccccc4)c3)n2)cc1` [Compound 366, N-(4-(2-(3-(N-benzylsulfamoyl)phenylao)pyrimidin-4-ylthio)phenyl)acrylamide] cannot be ordered by GI50: < 5 µM for the first, < 5 µM for the second.

`C=CC(=O)Nc1ccc(Sc2ccnc(Nc3cccc(S(=O)(=O)N4CCN(C)CC4)c3)n2)cc1` [Compound 365, N-(4-(2-(3-(4-methylpiperazin-1-ylsulfonyl)phenylao)pyrimidin-4-ylthio)phenyl)acrylamide] was tested, and the GI50 was < 5 µM.

From US8846704B2, “Thiopyrimidine-based compounds and uses thereof” (YM Biosciences Austraila Pty Ltd, priority 2007, dated 2014)
